Experimental data: patent US5643784A, “Indan derivatives” (H, Lundbeck A/S, priority 1990, dated 1997)

Key:
α1 adrenoceptors = test: Inhibition of 3H-prazosin binding to α1 adrenoceptors in rat brain in vitro; conditions: 3H-Prazosin 0.25 nM, rat brain, 25° C., 20 min; read-out: Receptor Binding; IC50 α1 3H-Praz
Description: INHIBITION OF ^3 H-PRAZOSIN BINDING TO α1 ADRENOCEPTORS IN RAT BRAIN IN VITRO
Method and results in Hyttel & Larsen, J. Neurochem, 44, 1615-1622, 1985; Skarsfeldt & Hyttel, Eur. J. Pharmacol. 125, 323-340, 1986.
(§1) Male Wistar (Mol:Wist) rats (125-200 g) are sacrificed and brain tissue is dissected and weighed. The tissue is homogenized (Ultra Turrax, 10 sec.) in 10 ml of ice-cold 50 nM Tris buffer pH 7,7 (at 25° C.). The homogenate is centrifuged twice at 20,000 g for 10 min. at 4° C. with rehomogenization of the pellet in 10 ml ice-cold buffer. The final pellet is homogenized in 400 vol (w/v) ice-cold buffer.
Incubation tubes kept on ice in triplicate receive 100 μl of drug solution in water (or water for total binding) and 4000μl of tissue suspension (final tissue content corresponds to 10 mg original tissue). The binding experiment is initiated by addition of 100 μl of ^3 H-Prazosin (final concentration 0.25 nM) and by placing the tubes in a 25° C. water bath. After incubation for 20 min. the samples are filtered under vacuum (0-50 mBar) through Whatman GF/F filters (25 mm). The tubes are rinsed with 5 ml ice-cold buffer which then are poured on the filters. Thereafter, the filters are washed with 5 ml of buffer. The filters are placed in counting vials and 4 ml of appropriate scintillation fluid (e.g. Picofluor™15) are added. After shaking for 1 h and storage 2 hrs in the dark the content of radioactivity is determined by liquid scintillation counting. Specific binding is obtained by subtracting the nonspecific binding in the presence of 1 μM of Prazosin.
(§2) For determination of the inhibition of binding five concentrations of drugs covering 3 decades are used.
The measured cpm are plotted against drug concentration on semilogarithmic paper and the best fitting S-shaped curve is drawn. The IC50 value is determined as the concentration at which the binding is 50% of the total binding in control samples minus the nonspecific binding in the presence of 1 μM of Prazosin.
^3 H-Prazosin=[furoyl-5-^3 H]-Prazosin from New England Nuclear, specific activity approximately 20 Ci/mmol.

5-HT2 receptors = biological target: T1, 5-HT2 receptors (Rattus norvegicus, UniProt P14842); test: Inhibition of 3H-ketanserin binding to 5-HT2 receptors in rat cortex in vitro; conditions: 3H-Ketanserin 0.5 nM, rat cortex, 37° C., 30 min; read-out: Receptor Binding; IC50 5-HT2 3H-Ket
T1 construct: cortical tissue is dissected and weighed; from tissue; host or cells: cortex of male Wistar rats, crude membranes
T1 sequence (P14842 whole entry): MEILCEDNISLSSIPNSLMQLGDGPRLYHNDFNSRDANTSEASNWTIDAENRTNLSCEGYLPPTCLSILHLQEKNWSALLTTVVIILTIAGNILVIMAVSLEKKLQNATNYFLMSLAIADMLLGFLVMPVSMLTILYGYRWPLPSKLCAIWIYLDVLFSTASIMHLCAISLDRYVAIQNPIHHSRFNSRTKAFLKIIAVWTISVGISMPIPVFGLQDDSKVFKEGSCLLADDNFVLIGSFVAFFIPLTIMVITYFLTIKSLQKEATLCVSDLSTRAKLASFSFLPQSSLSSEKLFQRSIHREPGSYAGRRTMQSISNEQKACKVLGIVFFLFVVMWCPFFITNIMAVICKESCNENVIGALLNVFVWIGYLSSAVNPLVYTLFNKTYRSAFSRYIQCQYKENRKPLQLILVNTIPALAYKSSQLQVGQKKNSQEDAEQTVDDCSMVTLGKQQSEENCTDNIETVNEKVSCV
Description: Method in Hyttel, Pharmacology & Toxicology, 61, 126-129, 1987.
as §1, with “(125-250” for “(125-200”, “cortical” for “brain”, “mM tris” for “nM Tris”, “7.7” for “7,7”, “C.). The centrifuge glassware used in this step has been rinsed by sonication for 10 min. in ethanol.” for “C.).”, “500” for “400”
Incubation tubes kept on ice in triplicate receive 100 μl of drug solution in water (or water for total binding) and 2000 μl of tissue suspension (final tissue content corresponds to 4 mg original tissue). […] After incubation for 30 min. the samples are filtered under vacuum (0-50 mBar) through Whatman GF/F filters (25 mm). The tubes are rinsed with 5 ml ice-cold buffer which are then poured on the filters. Thereafter, the filters are washed with 2×5 ml of buffer. The filters are placed in counting vials and 4 ml of appropriate scintillation fluid (e.g. Picofluor™15) are added. After shaking for 1 h and storage 2 hrs in the dark the content of radioactivity is determined by liquid scintillation counting. Specific binding is obtained by subtracting the nonspecific binding in the presence of 1 μM mianserin.
as §2
The IC50 value is determined as the concentration at which the binding is 50% of the total binding in control samples minus the nonspecific binding in the presence of 1 μM mianserin.

Compound | IC50 (α1 adrenoceptors) [nM] | IC50 (5-HT2 receptors) [nM]
O=C1OCCN1CCN1CCN([C@H]2C[C@H](c3ccc(F)cc3)c3cc(Cl)ccc32)CC1 (relative stereo) [Compound 14, Trans-3-[2-[4-[5-chloro-3-(4-fluorophenyl)-2,3-dihydro-1-H-inden-1-yl]piperazin-1-yl]ethyl]-2-oxazolidinone] | 140 | 23
CC(C)N1CCN(CCN2CCN([C@H]3C[C@H](c4ccc(F)cc4)c4cc(Cl)ccc43)CC2)C1=O (single isomer, unassigned) [(+)-11] | 340 | 75
Fc1ccc([C@@H]2C[C@@H](N3CCN(CCN4CCNC4=S)CC3)c3ccc(F)cc32)cc1 (relative stereo) [Compound 29, Trans-1-[2-[4-[5-fluoro-3-(4-fluorophenyl)-2,3-dihydro-1H-inden-1-yl]piperazin-1-yl]-ethyl]-2-imidazolidinthione] | 110 | 1.5
O=C1NCCCN1CCN1CCN([C@@H]2C[C@@H](c3ccc(F)cc3)c3cc(Cl)ccc32)CC1 (single isomer, unassigned) [(-)-34, (-)-Trans-1-[2-[4-[5-chloro-3-(4-fluorophenyl)-2,3-dihydro-1H-inden-1-yl]piperazin-1-yl]ethyl]-tetrahydro-2(1H)-pyrimidinone] | 62 | 1.3
Fc1ccc([C@@H]2C[C@@H](N3CCN(CCN4CCCNC4=S)CC3)c3ccc(Cl)cc32)cc1 (relative stereo) [Compound 32, Trans-1-[2-[4-[5-chloro-3-(4-fluorophenyl)-2,3-dihydro-1H-inden-1-yl]piperazin-1-yl]ethyl]-tetrahydro-2(1H)-pyrimidinethione] | 170 | 1.5
Cc1ccc2c(c1)[C@@H](c1ccc(F)cc1)C[C@@H]2N1CCN(CCN2CCN(C(C)C)C2=O)CC1 (relative stereo) [Compound 12, Trans-1-[2-[4-[3-(4-fluorophenyl)-5-methyl-2,3-dihydro-1-H-inden-1-yl]piperazin-1-yl]ethyl]-3-isopropyl-2-imidazolidinone] | 120 | 3
O=c1[nH]c2ccccc2n1CCN1CCN([C@@H]2C[C@@H](c3ccc(F)cc3)c3cc(Cl)ccc32)CC1 (relative stereo) [Compound 25, Trans-1-[2-[4-[5-chloro-3-(4-fluorophenyl)-2,3-dihydro-1H-inden-1-yl]piperazin-1-yl]ethyl]-benzimidazolin-2-one] | – | 5.6
Fc1ccc([C@@H]2C[C@@H](N3CCN(CCN4CCCNC4=S)CC3)c3ccc(F)cc32)cc1 (relative stereo) [Compound 30, Trans-1-[2-[4-[5-fluoro-3-(4-fluorophenyl)-2,3-dihydro-1H-inden-1-yl]piperazin-1-yl]ethyl]-tetrahydro-2(1H)-pyrimidinethione] | 110 | 1.7
O=C1NCCN1CCN1CCN([C@@H]2C[C@@H](c3ccc(F)cc3)c3cc(Cl)ccc32)CC1 (relative stereo) [Compound 4, Trans-1-[2-[4-[5-chloro-3-(4-fluorophenyl)-2,3-dihydro-1H-inden-1-yl]piperazine-1-yl]ethyl]-2-imidazolidinone] | 200 | 2.9
OCCN1CCN([C@H]2C[C@H](c3ccc(F)cc3)c3cc(F)ccc32)CC1 (relative stereo) [Compound 2, Trans-4-[5-fluoro-3-(4-fluorophenyl)-2,3-dihydro-1H-inden-1-yl]-1-piperazine ethanol] | 150 | 21
OCCN1CCN([C@H]2C[C@H](c3ccc(F)cc3)c3cc(F)ccc32)CC1 (single isomer, unassigned) [(-)-2] | 1100 | 500
Fc1ccc([C@@H]2C[C@@H](N3CCN(CCN4CCCNC4=S)CC3)c3ccc(F)cc32)cc1 (single isomer, unassigned) [(-)-30, (-)-Trans-1-[2-[4-[5-fluoro-3-(4-fluorophenyl)-2,3-dihydro-1H-inden-1-yl]piperazin-1-yl]ethyl]-tetrahydro-2(1H)-pyrimidinethione] | – | 42
O=C1NCCN1CCCN1CCN([C@H]2C[C@H](c3ccc(F)cc3)c3cc(Cl)ccc32)CC1 (relative stereo) [Compound 16, Trans-1-[3-[4-[5-chloro-3-(4-fluorophenyl)-2,3-dihydro-1-H-inden-1-yl]piperazin-1-yl]propan-1-yl]-2-imidazolidinone] | 73 | 10
OCCN1CCN([C@H]2C[C@H](c3ccc(F)cc3)c3cc(F)ccc32)CC1 (single isomer, unassigned) [(+)-2] | 72 | 12
OCCN1CCN([C@H]2C[C@H](c3ccc(F)cc3)c3cc(Cl)ccc32)CC1 (single isomer, unassigned) [(-)-3] | 210 | 11
OCCN1CCN([C@H]2C[C@H](c3ccc(F)cc3)c3cc(Cl)ccc32)CC1 (single isomer, unassigned) [(+)-3] | 2500 | 230
O=C1CCCN1CCN1CCN([C@H]2C[C@H](c3ccc(F)cc3)c3cc(Cl)ccc32)CC1 (relative stereo) [Compound 15, Trans-1-[2-[4-[5-chloro-3-(4-fluorophenyl)-2-3-dihydro-1-H-inden-1-yl]piperazin-1-yl]ethyl]-2-pyrrolidinone] | 370 | 10
Fc1ccc([C@@H]2C[C@@H](N3CCN(CCN4CCCNC4=S)CC3)c3ccc(Cl)cc32)cc1 (single isomer, unassigned) [(+)-32, (+)-Trans-1-[2-[4-[5-chloro-3-(4-fluorophenyl)-2,3-dihydro-1H-inden-1-yl]piperazin-1-yl]ethyl]-tetrahydro-2(1H)-pyrimidinethione] | 350 | 21
O=C1NCCCN1CCN1CCN([C@@H]2C[C@@H](c3ccc(F)cc3)c3cc(Cl)ccc32)CC1 (single isomer, unassigned) [(+)-34, (+)-Trans-1-[2-[4-[5-chloro-3-(4-fluorophenyl)-2,3-dihydro-1H-inden-1-yl]piperazin-1-yl]ethyl]-tetrahydro-2(1H)-pyrimidinone] | – | 120
CC(C)N1CCN(CCN2CCN([C@@H]3C[C@@H](c4ccc(F)cc4)c4cc(Cl)ccc43)CC2)C1=O (single isomer, unassigned) [(-)-11, (-)-Trans-1-[2-[4-[5-chloro-3-(4-fluorophenyl)-2,3-dihydro-1H-inden-1-yl]piperazin-1-yl]-ethyl]-3-isopropyl-2-imidazolidinone] | 210 | 1.1
